Several values for one entry are separate records, joined by “and”; a condition that tells them apart may be missing. Equal entries are not always repeated.
Assay: xn = mol fraction of the nth substance listed

CC(C)O + O
Conditions	viscosity
293.15 K, 100 kPa, x1 = 0.2	3.802 mPa·s and 3.645 mPa·s
293.15 K, 100 kPa, x1 = 0.3	3.735 mPa·s
293.15 K, 101 kPa, x1 = 0.01	1.17 mPa·s
293.15 K, 101 kPa, x1 = 0.02	1.369 mPa·s
293.15 K, 101 kPa, x1 = 0.032	1.67 mPa·s
293.15 K, 101 kPa, x1 = 0.05	2.062 mPa·s
293.15 K, 101 kPa, x1 = 0.07069	2.544 mPa·s
293.15 K, 101 kPa, x1 = 0.1	3.054 mPa·s
293.15 K, 101 kPa, x1 = 0.11	3.26 mPa·s
293.15 K, 101 kPa, x1 = 0.2	3.741 mPa·s
293.15 K, 101 kPa, x1 = 0.23	3.875 mPa·s
293.15 K, 101 kPa, x1 = 0.41	3.493 mPa·s
298.15 K, 101 kPa, x1 = 0.01	1.029 mPa·s
298.15 K, 101 kPa, x1 = 0.02	1.188 mPa·s
298.15 K, 101 kPa, x1 = 0.032	1.416 mPa·s
298.15 K, 101 kPa, x1 = 0.07069	2.089 mPa·s
298.15 K, 101 kPa, x1 = 0.1	2.472 mPa·s
298.15 K, 101 kPa, x1 = 0.11	2.601 mPa·s
298.15 K, 101 kPa, x1 = 0.23	3.141 mPa·s
298.15 K, 101 kPa, x1 = 0.41	2.912 mPa·s
298.15 K, 101 kPa, x2 = 0.26	2.142 mPa·s
298.15 K, 101 kPa, x2 = 0.4678	2.527 mPa·s
298.15 K, 101 kPa, x2 = 0.6079	2.87 mPa·s
298.15 K, 101 kPa, x2 = 0.685	3.03 mPa·s
298.15 K, 101 kPa, x2 = 0.7249	3.054 mPa·s
298.15 K, 101 kPa, x2 = 0.805	2.978 mPa·s
298.15 K, 101 kPa, x2 = 0.89	2.431 mPa·s
298.15 K, 101 kPa, x2 = 0.9549	1.655 mPa·s
298.15 K, 101.33 kPa, x1 = 0.015	1.112 mPa·s
298.15 K, 101.33 kPa, x1 = 0.05	1.747 mPa·s
298.15 K, 101.33 kPa, x1 = 0.075	2.181 mPa·s
298.15 K, 101.33 kPa, x1 = 0.15	2.883 mPa·s
298.15 K, 101.33 kPa, x1 = 0.2	3.008 mPa·s
298.15 K, 101.33 kPa, x1 = 0.25	3.057 mPa·s
298.15 K, 101.33 kPa, x1 = 0.3	3.026 mPa·s
298.15 K, 101.33 kPa, x1 = 0.4	2.855 mPa·s
298.15 K, 101.33 kPa, x1 = 0.5	2.631 mPa·s
298.15 K, 101.33 kPa, x1 = 0.6	2.411 mPa·s
298.15 K, 101.33 kPa, x1 = 0.7	2.23 mPa·s
298.15 K, 101.33 kPa, x1 = 0.8	2.098 mPa·s
298.15 K, 101.33 kPa, x1 = 0.9	2.03 mPa·s
298.15 K, 101.33 kPa, x1 = 0.925	2.026 mPa·s
298.15 K, 101.33 kPa, x1 = 0.95	2.031 mPa·s
303.15 K, 100 kPa, x2 = 0.1	1.77 mPa·s
303.15 K, 100 kPa, x2 = 0.2	1.83 mPa·s
303.15 K, 100 kPa, x2 = 0.3	1.95 mPa·s
303.15 K, 100 kPa, x2 = 0.4	2.1 mPa·s
303.15 K, 100 kPa, x2 = 0.5	2.25 mPa·s
303.15 K, 100 kPa, x2 = 0.6	2.42 mPa·s
303.15 K, 100 kPa, x2 = 0.7	2.54 mPa·s
303.15 K, 100 kPa, x2 = 0.8	2.47 mPa·s
303.15 K, 100 kPa, x2 = 0.9	1.95 mPa·s
303.15 K, 101 kPa, x1 = 0.01	0.912 mPa·s
303.15 K, 101 kPa, x1 = 0.02	1.04 mPa·s
303.15 K, 101 kPa, x1 = 0.05	1.467 mPa·s
303.15 K, 101 kPa, x1 = 0.07069	1.735 mPa·s
303.15 K, 101 kPa, x1 = 0.1	2.041 mPa·s
303.15 K, 101 kPa, x1 = 0.2	2.504 mPa·s
303.15 K, 101 kPa, x1 = 0.23	2.573 mPa·s
303.15 K, 101 kPa, x1 = 0.41	2.434 mPa·s
303.15 K, 101 kPa, x2 = 0.1049	1.789 mPa·s
303.15 K, 101 kPa, x2 = 0.26	1.863 mPa·s
303.15 K, 101 kPa, x2 = 0.4678	2.158 mPa·s
303.15 K, 101 kPa, x2 = 0.6079	2.439 mPa·s
303.15 K, 101 kPa, x2 = 0.685	2.55 mPa·s
303.15 K, 101 kPa, x2 = 0.7249	2.557 mPa·s
303.15 K, 101 kPa, x2 = 0.805	2.451 mPa·s
303.15 K, 101 kPa, x2 = 0.89	2.007 mPa·s
303.15 K, 101 kPa, x2 = 0.9549	1.419 mPa·s
308.15 K, 101 kPa, x1 = 0.01	0.815 mPa·s
308.15 K, 101 kPa, x1 = 0.02	0.923 mPa·s
308.15 K, 101 kPa, x1 = 0.032	1.056 mPa·s
308.15 K, 101 kPa, x1 = 0.05	1.263 mPa·s
308.15 K, 101 kPa, x1 = 0.07069	1.48 mPa·s
308.15 K, 101 kPa, x1 = 0.1	1.717 mPa·s
308.15 K, 101 kPa, x1 = 0.11	1.749 mPa·s
308.15 K, 101 kPa, x1 = 0.2	2.109 mPa·s
308.15 K, 101 kPa, x1 = 0.23	2.142 mPa·s
308.15 K, 101 kPa, x1 = 0.41	2.044 mPa·s
308.15 K, 101 kPa, x2 = 0.1049	1.56 mPa·s
